Consider 19 compounds from patent US12667572B2, “Tricyclic compounds useful in the treatment of cancer, autoimmune and inflammatory disorders” (SCHRÖDINGER, INC., priority 2021, dated 2026).

This assay has as its target T1, full-length MALT1 protein His-MALT1(1-824) (Homo sapiens, UniProt Q9UDY8).
T1 construct: full-length MALT1 protein His-MALT1(1-824); His (N); made in house; host or cells: baculovirus-infected insect cells
T1 sequence (Q9UDY8 1-824): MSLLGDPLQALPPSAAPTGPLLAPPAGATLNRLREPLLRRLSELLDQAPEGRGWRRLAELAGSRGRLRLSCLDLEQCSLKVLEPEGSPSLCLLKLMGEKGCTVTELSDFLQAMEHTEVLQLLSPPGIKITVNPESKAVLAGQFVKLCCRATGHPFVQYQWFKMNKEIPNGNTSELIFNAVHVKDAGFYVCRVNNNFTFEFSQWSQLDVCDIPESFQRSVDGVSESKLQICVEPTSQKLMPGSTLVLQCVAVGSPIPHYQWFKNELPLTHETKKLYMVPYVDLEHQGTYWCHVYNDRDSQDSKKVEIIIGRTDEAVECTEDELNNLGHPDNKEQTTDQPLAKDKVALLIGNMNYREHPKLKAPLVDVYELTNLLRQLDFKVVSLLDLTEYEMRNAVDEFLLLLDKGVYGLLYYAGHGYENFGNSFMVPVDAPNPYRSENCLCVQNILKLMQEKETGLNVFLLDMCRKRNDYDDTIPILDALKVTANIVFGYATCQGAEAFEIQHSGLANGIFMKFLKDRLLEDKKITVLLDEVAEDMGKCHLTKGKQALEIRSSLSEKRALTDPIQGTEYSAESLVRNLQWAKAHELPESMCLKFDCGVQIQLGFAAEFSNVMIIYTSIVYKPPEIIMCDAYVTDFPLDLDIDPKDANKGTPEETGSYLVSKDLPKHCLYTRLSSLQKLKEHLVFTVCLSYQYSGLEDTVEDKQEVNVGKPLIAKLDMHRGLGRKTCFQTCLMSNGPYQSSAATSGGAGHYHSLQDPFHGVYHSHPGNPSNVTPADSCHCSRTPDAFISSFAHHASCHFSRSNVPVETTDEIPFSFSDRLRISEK
The experiment in a line: MALT1 protease assay, Assay 2 (1 nM MALT1, Ac-LRSR-AMC substrate). Type of assay: biochemical. The note with it: 1 nM MALT1, 50 μM Ac-LRSR-AMC, 2 h pre-incubation, 8 hr incubation at RT. As for the experimental part: MALT1 protease activity was assessed in an in vitro assay using a tetrapeptide as substrate and full-length MALT1 protein His-MALT1(1-824) purified from baculovirus-infected insect cells. The tetrapeptide substrate is Ac-LRSR-AMC (SM Biochemicals) with Km measured at around 100 μM.
The final assay buffer includes 1 nM (Assay 2) or 2 nM (Assay 1) of MALT1 full-length protein, 50 μM Ac-LRSR-AMC substrate, 50 mM Tris pH 7.5, 600 mM Sodium Citrate, 1 mM DTT, 1 mM EDTA, and 0.05% BSA in 384-well plate format using black microtiter square well plates (Optiplate 384-F, Perkin Elmer).
Test compounds were dissolved in 100% DMSO at stock of 10 mM, with final DMSO concentration 0.1%. Test compounds were pre-incubated with MALT1 protein for 2 h at room temperature. Substrate was added after the pre-incubation and fluorescence signal was measured using Envision at excitation 355 nm and emission 460 nm after 8 hr incubation at RT. Increase in the assay signal was linear over this period and proportional with increase in the enzyme content.
The fluorescence units were transformed to percentage of remaining activity by using the high control (HC, median of fluorescence signal from wells containing MALT1 protein, substrate, and DMSO) and low control (LC, median of fluorescence signal from wells with substrate only) with the formula below: […]
IC50 and Hill coefficients were obtained using Graph Pad Prism (Graph Pad software, Inc, USA) with non-linear regression analysis.

SMILES strings stand for the structures. A value given as a limit tells only on which side of the number the result lay.

A word on the IC50: it is the midpoint of a concentration-inhibition curve. A higher IC50 goes with lower potency. The compound `CC1(C)CC(C(=O)Nc2cnc(OC(F)F)c(C#N)c2)c2cnc3cc(Cl)nn3c21` (single isomer, unassigned) [Example 78, 2-chloro-N-(5-cyano-6-(difluoromethoxy)pyridin-3-yl)-8,8-dimethyl-7,8-dihydro-6H-cyclopenta[e]pyrazolo[1,5-a]pyrimidine-6-carboxamide] returned an IC50 of 100 to 1000 nM.
Turning to `CC1(C)C[C@@H](C(=O)Nc2cnc(OC3CC3)c(C#N)c2)c2cnc3cc(F)nn3c21` (single isomer, unassigned) [Example 80, N-(5-cyano-6-cyclopropoxypyridin-3-yl)-2-fluoro-8,8-dimethyl-7,8-dihydro-6H-cyclopenta[e]pyrazolo[1,5-a]pyrimidine-6-carboxamide], the IC50 was ≥ 1000 nM.
The value for `CC1(C)C[C@@H](C(=O)Nc2cnc(OC(F)F)c(C#N)c2)c2cnc3cc(F)nn3c21` (single isomer, unassigned) [Example 83, N-(5-cyano-6-(difluoromethoxy)pyridin-3-yl)-2-fluoro-8,8-dimethyl-7,8-dihydro-6H-cyclopenta[e]pyrazolo[1,5-a]pyrimidine-6-carboxamide] was 100 to 1000 nM.
The value for `CC1(C)CC(C(=O)Nc2cnc(OC(F)F)c(C#N)n2)c2cnc3cc(F)nn3c21` (single isomer, unassigned) [Example 86, N-(6-cyano-5-(difluoromethoxy)pyrazin-2-yl)-2-fluoro-8,8-dimethyl-7,8-dihydro-6H-cyclopenta[e]pyrazolo[1,5-a]pyrimidine-6-carboxamide] was ≥ 1000 nM.
On to `CC1(C)CC(C(=O)Nc2cnc(OC(F)F)c(C#N)n2)c2cnc3cc(F)nn3c21` (single isomer, unassigned) [Example 87, N-(6-cyano-5-(difluoromethoxy)pyrazin-2-yl)-2-fluoro-8,8-dimethyl-7,8-dihydro-6H-cyclopenta[e]pyrazolo[1,5-a]pyrimidine-6-carboxamide], for which the IC50 was ≥ 1000 nM.
Next, `CC1(C)CC(C(=O)Nc2cnc(-n3nccn3)c(C#N)c2)c2cnc3cc(F)nn3c21` (single isomer, unassigned) [Example 88, N-(5-cyano-6-(2H-1,2,3-triazol-2-yl)pyridin-3-yl)-2-fluoro-8,8-dimethyl-7,8-dihydro-6H-cyclopenta[e]pyrazolo[1,5-a]pyrimidine-6-carboxamide]: 10 to 100 nM; `CC1(C)C[C@@H](C(=O)Nc2cnc(OC(F)F)c(C#N)c2)c2cnc3c(F)c(F)nn3c21` (single isomer, unassigned) [Example 90, N-(5-cyano-6-(difluoromethoxy)pyridin-3-yl)-2,3-difluoro-8,8-dimethyl-7,8-dihydro-6H-cyclopenta[e]pyrazolo[1,5-a]pyrimidine-6-carboxamide]: ≥ 1000 nM; `COc1cnc(C(F)(F)F)cc1NC(=O)C1CC(C)(C)c2c1cnc1cc(F)nn21` (single isomer, unassigned) [Example 92, 2-fluoro-N-(5-methoxy-2-(trifluoromethyl)pyridin-4-yl)-8,8-dimethyl-7,8-dihydro-6H-cyclopenta[e]pyrazolo[1,5-a]pyrimidine-6-carboxamide]: 100 to 1000 nM.
Regarding `COc1cnc(C(F)(F)F)cc1NC(=O)C1CC(C)(C)c2c1cnc1cc(F)nn21` (single isomer, unassigned) [Example 93, 2-fluoro-N-(5-methoxy-2-(trifluoromethyl)pyridin-4-yl)-8,8-dimethyl-7,8-dihydro-6H-cyclopenta[e]pyrazolo[1,5-a]pyrimidine-6-carboxamide], the IC50 is ≥ 1000 nM.
The value for `O=C(Nc1cnc(-n2nccn2)c(Cl)c1)[C@@H]1CC2(CC2)c2c1cnc1cc(F)nn21` (single isomer, unassigned) [Example 94, N-(5-chloro-6-(2H-1,2,3-triazol-2-yl)pyridin-3-yl)-2-fluoro-6,7-dihydrospiro[cyclopenta[e]pyrazolo[1,5-a]pyrimidine-8,1′-cyclopropane]-6-carboxamide] was 10 to 100 nM.
The value for `CC1(C)C[C@@H](C(=O)Nc2ccnc(C(F)(F)F)c2)c2cnc3cc(C(F)F)nn3c21` (single isomer, unassigned) [Example 98, 2-(difluoromethyl)-8,8-dimethyl-N-(2-(trifluoromethyl)pyridin-4-yl)-7,8-dihydro-6H-cyclopenta[e]pyrazolo[1,5-a]pyrimidine-6-carboxamide] was ≥ 1000 nM; that for `CC1(C)CC(C(=O)Nc2ccnc(C(F)(F)F)c2)c2cnc3cc(C(F)F)nn3c21` (single isomer, unassigned) [Example 99, 2-(difluoromethyl)-8,8-dimethyl-N-(2-(trifluoromethyl)pyridin-4-yl)-7,8-dihydro-6H-cyclopenta[e]pyrazolo[1,5-a]pyrimidine-6-carboxamide] was 100 to 1000 nM.
The compound `CC1(C)CC(C(=O)Nc2cnc(-n3nccn3)c(Cl)c2)c2cnc3c(F)cnn3c21` (single isomer, unassigned) [Example 100, N-(5-chloro-6-(2H-1,2,3-triazol-2-yl)pyridin-3-yl)-3-fluoro-8,8-dimethyl-7,8-dihydro-6H-cyclopenta[e]pyrazolo[1,5-a]pyrimidine-6-carboxamide] gave an IC50 of 100 to 1000 nM.
Next, `N#Cc1cc(NC(=O)[C@@H]2CC3(CCC3)c3c2cnc2cc(F)nn32)cnc1OC(F)F` (single isomer, unassigned) [Example 102, N-(5-cyano-6-(difluoromethoxy)pyridin-3-yl)-2′-fluoro-6′,7′-dihydrospiro[cyclobutane-1,8′-cyclopenta[e]pyrazolo[1,5-a]pyrimidine]-6′-carboxamide]: 100 to 1000 nM.
In the case of `CC(C)(O)c1ncc(NC(=O)[C@@H]2CC3(CCC3)c3c2cnc2cc(F)nn32)cc1Cl` (single isomer, unassigned) [Example 104, N-(5-chloro-6-(2-hydroxypropan-2-yl)pyridin-3-yl)-2′-fluoro-6′,7′-dihydrospiro[cyclobutane-1,8′-cyclopenta[e]pyrazolo[1,5-a]pyrimidine]-6′-carboxamide], the concentration for half-maximal inhibition (IC50) is ≥ 1000 nM.
For the compound `CC(C)(O)c1ncc(NC(=O)[C@H]2CC3(CCC3)c3c2cnc2cc(F)nn32)cc1Cl` (single isomer, unassigned) [Example 105, N-(5-chloro-6-(2-hydroxypropan-2-yl)pyridin-3-yl)-2′-fluoro-6′,7′-dihydrospiro[cyclobutane-1,8′-cyclopenta[e]pyrazolo[1,5-a]pyrimidine]-6′-carboxamide], the IC50 was ≥ 1000 nM.
The compound `CC1(C)C[C@@H](C(=O)Nc2cnc(-n3nccn3)c(C#N)c2)c2cnc3cc(Cl)nn3c21` (single isomer, unassigned) [Example 106, 2-chloro-N-(5-cyano-6-(2H-1,2,3-triazol-2-yl)pyridin-3-yl)-8,8-dimethyl-7,8-dihydro-6H-cyclopenta[e]pyrazolo[1,5-a]pyrimidine-6-carboxamide] had an IC50 of 10 to 100 nM.
In the case of `O=C(Nc1cnc(-n2nccn2)c(Cl)c1)C1CC2(CCC2)c2c1cnc1cc(F)nn21` (single isomer, unassigned) [Example 109, N-(5-chloro-6-(2H-1,2,3-triazol-2-yl)pyridin-3-yl)-2′-fluoro-6′,7′-dihydrospiro[cyclobutane-1,8′-cyclopenta[e]pyrazolo[1,5-a]pyrimidine]-6′-carboxamide], the IC50 was ≥ 1000 nM.
Next, `CC1(C)C[C@@H](C(=O)Nc2cnc(-n3ncc(C4COC4)n3)c(Cl)c2)c2cnc3cc(Cl)nn3c21` (single isomer, unassigned) [Example 110, 2-chloro-N-(5-chloro-6-(4-(oxetan-3-yl)-2H-1,2,3-triazol-2-yl)pyridin-3-yl)-8,8-dimethyl-7,8-dihydro-6H-cyclopenta[e]pyrazolo[1,5-a]pyrimidine-6-carboxamide]: 10 to 100 nM.
